The text below walks through data of the supplement of paper PMC10307832.

Common to all, as to assay: relative viability (nuclei count vs DMSO), 5 days (fraction); higher = more cells survive
Compound in experiment [1]: NC1(c2ccc(-c3nc4ccn5c(=O)[nH]nc5c4cc3-c3ccccc3)cc2)CCC1 [MK-2206] + O=C(CCCCCCC(=O)Nc1ccccc1)NO [Vorinostat] (partner 1 µM)
In short, it runs like this: (§1)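 Values are medians from duplicate plates. Each reflects relative viability, defined as the nuclei count of treated wells over that of vehicle wells. Lung cancer cell lines in 1536-well plates were pin-tool dosed one day after seeding with one drug alone or with a fixed anchor-drug dose plus five library-drug doses (not always all listed) in √10 steps, then fixed, stained and imaged at 4× after 5 days.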

Compound in experiment [2]: CS(=O)(=O)N1CCN(Cc2cc3nc(-c4cccc5[nH]ncc45)nc(N4CCOCC4)c3s2)CC1 [Pictilisib] + CC(C)C[C@H](NC(=O)[C@H](Cc1ccccc1)NC(=O)c1cnccn1)B(O)O [Bortezomib] (partner 0.002 µM)
In short, it runs like this:
as §1

Compound in experiment [3]: CS(=O)(=O)N1CCN(Cc2cc3nc(-c4cccc5[nH]ncc45)nc(N4CCOCC4)c3s2)CC1 [Pictilisib] + Cc1cc(Nc2cc(N3CCN(C)CC3)nc(Sc3ccc(NC(=O)C4CC4)cc3)n2)n[nH]1 [Tozasertib] (partner 0.1 µM)
In short, it runs like this:
as §1

Compound in experiment [4]: NC1(c2ccc(-c3nc4ccn5c(=O)[nH]nc5c4cc3-c3ccccc3)cc2)CCC1 [MK-2206] + C[C@]1(O)C[C@@H](c2nc(-c3ccc4ccc(-c5ccccc5)nc4c3)c3c(N)nccn32)C1 [Linsitinib] (partner 1 µM)
Put shortly: as §1

Compound in experiment [5]: CS(=O)(=O)N1CCN(Cc2cc3nc(-c4cccc5[nH]ncc45)nc(N4CCOCC4)c3s2)CC1 [Pictilisib] + N=C(N)NC(=N)NCCc1ccccc1 [Phenformin] (partner 250 µM)
In short, it runs like this: as §1

On to NCI-H2228, for which the relative viability in experiment [1] (first compound 0.01 µM) was 0.741; in experiment [1] (first compound 0.03162 µM), 0.857; in experiment [1] (first compound 0.3162 µM) it was 0.588; in experiment [1] (first compound 1 µM), 0.386; in experiment [2] (first compound 0.02 µM) it was 0.915; in experiment [2] (first compound 0.06325 µM), 1.04. Besides, the relative viability in experiment [2] (first compound 0.6325 µM) was 0.689; in experiment [2] (first compound 2 µM), 0.528; in experiment [3] (first compound 0.02 µM), 0.272; in experiment [3] (first compound 0.06325 µM) it was 0.211; in experiment [3] (first compound 0.6325 µM), 0.169; in experiment [3] (first compound 2 µM) it was 0.0908. The relative viability amounted to 0.546 in experiment [4] (first compound 0.01 µM); 0.677 in experiment [4] (first compound 0.03162 µM); 0.303 in experiment [4] (first compound 0.3162 µM); 0.264 in experiment [4] (first compound 1 µM); 0.335 in experiment [5] (first compound 0.02 µM); 0.38 in experiment [5] (first compound 0.06325 µM). The figures for the relative viability in experiment [5] (first compound 0.6325 µM) and in experiment [5] (first compound 2 µM) were 0.18 and 0.141, respectively.

Consider NCI-H2347, for which the relative viability turned out to be 0.641 in experiment [1] (first compound 0.01 µM); 0.581 in experiment [1] (first compound 0.03162 µM); 0.645 in experiment [1] (first compound 0.3162 µM); 0.555 in experiment [1] (first compound 1 µM); 1.05 in experiment [2] (first compound 0.02 µM); 1.12 in experiment [2] (first compound 0.06325 µM). For the same cell line, the relative viability in experiment [2] (first compound 0.6325 µM) was determined as 0.938; in experiment [2] (first compound 2 µM), 0.567; in experiment [3] (first compound 0.02 µM) it was 0.512; in experiment [3] (first compound 0.06325 µM) it was 0.517; in experiment [3] (first compound 0.6325 µM), 0.462; in experiment [3] (first compound 2 µM), 0.285. In addition, the relative viability in experiment [4] (first compound 0.01 µM) came out at 0.906; in experiment [4] (first compound 0.03162 µM), 1; in experiment [4] (first compound 0.3162 µM), 0.848; in experiment [4] (first compound 1 µM) it was 0.952; in experiment [5] (first compound 0.02 µM), 0.451; in experiment [5] (first compound 0.06325 µM) it was 0.461. The results for the relative viability in experiment [5] (first compound 0.6325 µM) and in experiment [5] (first compound 2 µM) were 0.325 and 0.207, respectively.

NCI-H2405: the relative viability is 1.04 in experiment [1] (first compound 0.01 µM); 1.09 in experiment [1] (first compound 0.03162 µM); 1.07 in experiment [1] (first compound 0.3162 µM); 0.894 in experiment [1] (first compound 1 µM); 1.03 in experiment [2] (first compound 0.02 µM); 0.961 in experiment [2] (first compound 0.06325 µM). Moreover, the relative viability in experiment [2] (first compound 0.6325 µM) came out at 0.919; in experiment [2] (first compound 2 µM) it was 0.651; in experiment [3] (first compound 0.02 µM), 0.764; in experiment [3] (first compound 0.06325 µM), 0.725; in experiment [3] (first compound 0.6325 µM), 0.663; in experiment [3] (first compound 2 µM) it was 0.348. Further, the relative viability in experiment [4] (first compound 0.01 µM) turned out to be 0.878; in experiment [4] (first compound 0.03162 µM), 1.09; in experiment [4] (first compound 0.3162 µM), 0.878; in experiment [4] (first compound 1 µM) it was 0.71; in experiment [5] (first compound 0.02 µM) it was 0.4; in experiment [5] (first compound 0.06325 µM) it was 0.386. The figures for the relative viability in experiment [5] (first compound 0.6325 µM) and in experiment [5] (first compound 2 µM) were 0.364 and 0.23, respectively.

On to NCI-H3122, for which the relative viability in experiment [1] (first compound 0.01 µM) was 0.924; in experiment [1] (first compound 0.03162 µM) it was 0.969; in experiment [1] (first compound 0.3162 µM), 0.944; in experiment [1] (first compound 1 µM), 0.871; in experiment [2] (first compound 0.02 µM), 0.99; in experiment [2] (first compound 0.06325 µM), 1.05. The relative viability stood at 1.04 in experiment [2] (first compound 0.6325 µM); 0.601 in experiment [2] (first compound 2 µM); 0.323 in experiment [3] (first compound 0.02 µM); 0.311 in experiment [3] (first compound 0.06325 µM); 0.321 in experiment [3] (first compound 0.6325 µM); 0.142 in experiment [3] (first compound 2 µM). Also, the relative viability in experiment [4] (first compound 0.01 µM) was 0.942; in experiment [4] (first compound 0.03162 µM), 1.07; in experiment [4] (first compound 0.3162 µM), 0.927; in experiment [4] (first compound 1 µM) it was 0.91; in experiment [5] (first compound 0.02 µM), 0.402; in experiment [5] (first compound 0.06325 µM), 0.4. In addition, the relative viability turned out to be 0.394 in experiment [5] (first compound 0.6325 µM) and 0.284 in experiment [5] (first compound 2 µM).
